Reference: patent US10370366B2 (Flatley Discovery Lab, LLC, priority 2013, dated 2019)

Biological target: T1, human F508del CFTR (Homo sapiens, UniProt P13569, DEL508-508)
T1 construct: expressed in transfected cells; host or cells: Fisher Rat Thyroid (FRT) cells
Experiment: CFTR-YFP High Throughput Assay
Type: cell-based
Conditions: FRT cells expressing human F508del CFTR and YFP; for Emax: EMax normalized to the positive control, read-out: % Efficacy
Procedure, shortened: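 FRT cells stably co-expressing human F508del CFTR and halide-sensitive YFP-H148Q/I152L; for correction, compound (2 nM-40 μM) incubated 24-26 h at 37° C, washed, then stimulated 60-120 min at RT with 20 μM forskolin plus 30 μM potentiator P3. Iodide-induced YFP quench (Ex 500/Em 540 nm) recorded; quench rates least-squares fitted.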

T1 sequence (P13569 with tags, fused parts or gaps DEL508-508): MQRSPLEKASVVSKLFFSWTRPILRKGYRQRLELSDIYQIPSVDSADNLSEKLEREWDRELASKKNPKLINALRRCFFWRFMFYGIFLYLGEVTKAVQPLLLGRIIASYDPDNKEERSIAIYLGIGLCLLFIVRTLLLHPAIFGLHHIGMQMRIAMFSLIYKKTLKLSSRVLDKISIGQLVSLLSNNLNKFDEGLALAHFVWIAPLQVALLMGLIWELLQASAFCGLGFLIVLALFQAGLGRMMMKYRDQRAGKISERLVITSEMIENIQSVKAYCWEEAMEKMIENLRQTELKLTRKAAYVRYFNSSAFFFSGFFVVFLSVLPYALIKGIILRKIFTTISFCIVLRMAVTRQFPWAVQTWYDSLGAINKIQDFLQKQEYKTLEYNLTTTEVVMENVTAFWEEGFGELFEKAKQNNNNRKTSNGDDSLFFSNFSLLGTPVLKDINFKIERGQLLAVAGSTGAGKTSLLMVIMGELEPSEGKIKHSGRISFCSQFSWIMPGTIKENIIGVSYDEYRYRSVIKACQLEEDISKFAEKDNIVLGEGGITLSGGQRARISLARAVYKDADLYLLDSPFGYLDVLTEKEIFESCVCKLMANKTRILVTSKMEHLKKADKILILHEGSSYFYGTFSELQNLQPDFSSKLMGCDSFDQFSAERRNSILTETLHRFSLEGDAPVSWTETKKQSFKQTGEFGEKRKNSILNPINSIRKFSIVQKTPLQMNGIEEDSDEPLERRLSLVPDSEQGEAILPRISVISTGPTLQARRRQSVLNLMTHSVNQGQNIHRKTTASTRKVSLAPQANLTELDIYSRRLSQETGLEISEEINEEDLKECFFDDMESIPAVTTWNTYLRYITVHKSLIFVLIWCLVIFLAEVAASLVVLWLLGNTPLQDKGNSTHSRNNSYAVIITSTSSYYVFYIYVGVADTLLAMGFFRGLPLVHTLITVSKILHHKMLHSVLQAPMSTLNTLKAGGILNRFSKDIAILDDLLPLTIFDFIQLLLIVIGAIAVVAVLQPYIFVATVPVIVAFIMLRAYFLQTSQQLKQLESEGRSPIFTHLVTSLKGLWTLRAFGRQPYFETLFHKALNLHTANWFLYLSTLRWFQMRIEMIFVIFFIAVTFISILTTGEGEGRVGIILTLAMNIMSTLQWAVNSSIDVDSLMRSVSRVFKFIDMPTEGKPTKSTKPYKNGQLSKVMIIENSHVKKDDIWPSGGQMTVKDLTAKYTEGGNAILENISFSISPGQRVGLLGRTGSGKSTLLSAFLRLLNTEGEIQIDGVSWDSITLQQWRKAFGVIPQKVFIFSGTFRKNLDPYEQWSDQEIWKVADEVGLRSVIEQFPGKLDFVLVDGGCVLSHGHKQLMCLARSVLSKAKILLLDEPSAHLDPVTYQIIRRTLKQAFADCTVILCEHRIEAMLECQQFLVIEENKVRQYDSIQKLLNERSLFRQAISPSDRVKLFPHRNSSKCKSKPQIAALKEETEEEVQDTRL

Emax	EC50	SMILES
> 80%	< 10 µM	Cc1nc2ccc(N(C)C(=O)Cn3nc(-c4cccc(Cl)c4)c4ccc(OCc5ccccc5)cc4c3=O)cc2o1 [Example 116, 2-(7-(benzyloxy)-4-(3-chlorophenyl)-1-oxophthalazin-2(1H)-yl)-N-methyl-N-(2-methylbenzo[d]oxazol-6-yl)acetamide]
> 80%	< 10 µM	Cc1nc2ccc(N(C)C(=O)Cn3nc(-c4cccc(C#N)c4)c4ccc(OC5CCOCC5)cc4c3=O)cc2o1 [Example 120, 2-(4-(3-cyanophenyl)-1-oxo-7-((tetrahydro-2H-pyran-4-yl)oxy)phthalazin-2(1H)-yl)-N-methyl-N-(2-methylbenzo[d]oxazol-6-yl)acetamide]
> 80%	–	CCOc1cc2c(=O)n(CC(=O)N(C)c3ccc4nc(C)oc4c3)nc(-c3cccc(F)c3)c2cc1Cl [Example 121, 2-(6-chloro-7-ethoxy-4-(3-fluorophenyl)-1-oxophthalazin-2(1H)-yl)-N-methyl-N-(2-methylbenzo[d]oxazol-6-yl)acetamide]
> 80%	< 10 µM	CCOc1cc2c(=O)n(CC(=O)N(C)c3ccc4c(c3)OC(F)(F)O4)nc(-c3cccc(C#N)c3)c2cc1Cl [Example 122, 2-(6-chloro-4-(3-cyanophenyl)-7-ethoxy-1-oxophthalazin-2(1H)-yl)-N-(2,2-difluorobenzo[d][1,3]dioxol-5-yl)-N-methylacetamide]
30 to 80%	–	CCN(C(=O)Cn1nc(C(=O)Nc2ccccc2C#N)c2ccccc2c1=O)c1ccc2c(c1)OC(F)(F)O2 [Example 124, N-(2-cyanophenyl)-3-(2-((2,2-difluorobenzo[d][1, 3]dioxol-5-yl)(ethyl)amino)-2-oxoethyl)-4-oxo-3,4-dihydrophthalazine-1-carboxamide]
30 to 80%	–	CCN(C(=O)Cn1nc(C(=O)Nc2cc(Cl)ccc2C(=O)O)c2ccccc2c1=O)c1ccc2c(c1)OC(F)(F)O2 [Example 125]
30 to 80%	< 10 µM	CCN(C(=O)Cn1nc(C(=O)Nc2ccccn2)c2ccccc2c1=O)c1ccc2c(c1)OC(F)(F)O2 [Example 126, 3-(2-((2,2-difluorobenzo[d][1,3]dioxol-5-yl)(ethyl)amino)-2-oxoethyl)-4-oxo-N-(pyridin-2-yl)-3,4-dihydrophthalazine-1-carboxamide]
30 to 80%	< 10 µM	CCN(C(=O)Cn1nc(C(=O)N(C)c2ccccn2)c2ccccc2c1=O)c1ccc2c(c1)OC(F)(F)O2 [Example 127, 3-(2-((2,2-difluorobenzo[d][1,3]dioxol-5-yl)(ethyl)amino)-2-oxoethyl)-N-methyl-4-oxo-N-(pyridin-2-yl)-3,4-dihydrophthalazine-1-carboxamide]
30 to 80%	10 to 20 µM	CCc1ccc(N(CC)C(=O)Cn2nc(C(=O)Nc3cc(Cl)ccc3C#N)c3ccccc3c2=O)cc1 [Example 128, N-(5-chloro-2-cyanophenyl)-3-(2-(ethyl(4-ethylphenyl)amino)-2-oxoethyl)-4-oxo-3,4-dihydrophthalazine-1-carboxamide]
30 to 80%	10 to 20 µM	CCN(C(=O)Cn1nc(C(=O)N(CC)c2ccccc2C#N)c2ccccc2c1=O)c1ccc2c(c1)OC(F)(F)O2 [Example 129, N-(2-cyanophenyl)-3-(2-((2,2-difluorobenzo[d][1,3]dioxol-5-yl)(ethyl)amino)-2-oxoethyl)-N-ethyl-4-oxo-3,4-dihydrophthalazine-1-carboxamide]
30 to 80%	–	CCc1ccc(N(CC)C(=O)Cn2nc(C(=O)Nc3cc(Cl)ccc3C(=O)OC)c3ccccc3c2=O)cc1 [Example 130, methyl 4-chloro-2-(3-(2-(ethyl(4-ethylphenyl)amino)-2-oxoethyl)-4-oxo-3,4-dihydrophthalazine-1-carboxamido)benzoate]
30 to 80%	–	CCN(C(=O)Cn1ncc2c(c1=O)c1ccccc1n2Cc1ccccn1)c1ccc2c(c1)OC(F)(F)O2 [Example 131, N-(2,2-difluorobenzo[d][1, 3]dioxol-5-yl)-N-ethyl-2-(1-oxo-5-(pyridin-2-ylmethyl)-1H-pyridazino[4,5-b]indol-2(5H)-yl)acetamide]
30 to 80%	–	CCN(C(=O)Cn1ncc2c(c1=O)c1ccccc1n2CCOC)c1ccc2c(c1)OC(F)(F)O2 [Example 132, N-(2,2-difluorobenzo[d][1,3]dioxol-5-yl)-N-ethyl-2-(5-(2-methoxyethyl)-1-oxo-1H-pyridazino[4,5-b]indol-2(5H)-yl)acetamide]
30 to 80%	–	CCN(C(=O)Cn1ncc2c(c1=O)c1ccccc1n2Cc1ccccc1)c1ccc2c(c1)OC(F)(F)O2 [Example 133, 2-(5-benzyl-1-oxo-1H-pyridazino[4,5-b]indol-2(5H)-yl)-N-(2,2-difluorobenzo[d][1,3]dioxol-5-yl)-N-ethylacetamide]
30 to 80%	–	CCN(C(=O)Cn1ncc2c(c1=O)c1ccccc1n2CCC(=O)OC)c1ccc2c(c1)OC(F)(F)O2 [Example 134, methyl 3-(2-(2-((2,2-difluorobenzo[d][1,3]dioxol-5-yl)(ethyl)amino)-2-oxoethyl)-1-oxo-1H-pyridazino[4,5-b]indol-5(2H)-yl)propanoate]
30 to 80%	< 10 µM	CCN(C(=O)Cn1ncc2c(c1=O)c1ccccc1n2Cc1cccc(OC)c1)c1ccc2c(c1)OC(F)(F)O2 [Example 135, N-(2,2-difluorobenzo[d][1,3]dioxol-5-yl)-N-ethyl-2-(5-(3-methoxybenzyl)-1-oxo-1H-pyridazino[4,5-b]indol-2(5H)-yl)acetamide]
30 to 80%	< 10 µM	CCN(C(=O)Cn1ncc2c(c1=O)c1ccccc1n2Cc1ccc(OC)cc1)c1ccc2c(c1)OC(F)(F)O2 [Example 136, N-(2,2-difluorobenzo[d][1,3]dioxol-5-yl)-N-ethyl-2-(5-(4-methoxybenzyl)-1-oxo-1H-pyridazino[4,5-b]indol-2(5H)-yl)acetamide]
30 to 80%	–	CCN(C(=O)Cn1ncc2c(c1=O)c1ccccc1n2CCCOC)c1ccc2c(c1)OC(F)(F)O2 [Example 137, N-(2,2-difluorobenzo[d][1,3]dioxol-5-yl)-N-ethyl-2-(5-(3-methoxypropyl)-1-oxo-1H-pyridazino[4,5-b]indol-2(5H)-yl)acetamide]
10 to 30%	> 20 µM	CCN(C(=O)Cn1ncc2c(c1=O)c1ccccc1n2CCC#N)c1ccc2c(c1)OC(F)(F)O2 [Example 138, 2-(5-(2-cyanoethyl)-1-oxo-1H-pyridazino[4,5-b]indol-2(5H)-yl)-N-(2,2-difluorobenzo[d][1,3]dioxol-5-yl)-N-ethylacetamide]
30 to 80%	10 to 20 µM	CCN(C(=O)Cn1ncc2c(c1=O)c1ccccc1n2CC#N)c1ccc2c(c1)OC(F)(F)O2 [Example 139, 2-(5-(cyanomethyl)-1-oxo-1H-pyridazino[4,5-b]indol-2(5H)-yl)-N-(2,2-difluorobenzo[d][1,3]dioxol-5-yl)-N-ethylacetamide]
30 to 80%	–	CCN(C(=O)Cn1ncc2c(c1=O)c1ccccc1n2Cc1cccnc1)c1ccc2c(c1)OC(F)(F)O2 [Example 140, N-(2,2-difluorobenzo[d][1,3]dioxol-5-yl)-N-ethyl-2-(1-oxo-5-(pyridin-3-ylmethyl)-1H-pyridazino[4,5-b]indol-2(5H)-yl)acetamide]
30 to 80%	–	CCN(C(=O)Cn1ncc2c(c1=O)c1ccccc1n2Cc1ccccc1C#N)c1ccc2c(c1)OC(F)(F)O2 [Example 141, 2-(5-(2-cyanobenzyl)-1-oxo-1H-pyridazino[4,5-b]indol-2(5H)-yl)-N-(2,2-difluorobenzo[d][1,3]dioxol-5-yl)-N-ethylacetamide]
30 to 80%	–	CCN(C(=O)Cn1ncc2c(c1=O)c1ccccc1n2Cc1cccc(C#N)c1)c1ccc2c(c1)OC(F)(F)O2 [Example 142, 2-(5-(3-cyanobenzyl)-1-oxo-1H-pyridazino[4,5-b]indol-2(5H)-yl)-N-(2,2-difluorobenzo[d][1,3]dioxol-5-yl)-N-ethylacetamide]
30 to 80%	–	CCN(C(=O)Cn1ncc2c(c1=O)c1ccccc1n2Cc1ccncc1)c1ccc2c(c1)OC(F)(F)O2 [Example 143, N-(2,2-difluorobenzo[d][1,3]dioxol-5-yl)-N-ethyl-2-(1-oxo-5-(pyridin-4-ylmethyl)-1H-pyridazino[4,5-b]indol-2(5H)-yl)acetamide]
> 80%	10 to 20 µM	CCN(C(=O)Cn1ncc2c(c1=O)c1ccccc1n2Cc1ccc(C#N)cc1)c1ccc2c(c1)OC(F)(F)O2 [Example 144, 2-(5-(4-cyanobenzyl)-1-oxo-1H-pyridazino[4,5-b]indol-2(5H)-yl)-N-(2-2-difluorobenzo[d][1,3]dioxol-5-yl)-N-ethylacetamide]
30 to 80%	< 10 µM	CCN(C(=O)Cn1ncc2c(c1=O)c1ccccc1n2Cc1ccc(C#N)c(F)c1)c1ccc2c(c1)OC(F)(F)O2 [Example 145, 2-(5-(4-cyano-3-fluorobenzyl)-1-oxo-1H-pyridazino[4,5-b]indol-2(5H)-yl)-N-(2,2-difluorobenzo[d][1,3]dioxol-5-yl)-N-ethylacetamide]
30 to 80%	< 10 µM	CCN(C(=O)Cn1ncc2c(c1=O)c1ccccc1n2Cc1ccc(C#N)cc1F)c1ccc2c(c1)OC(F)(F)O2 [Example 146, 2-(5-(4-cyano-2-fluorobenzyl)-1-oxo-1H-pyridazino[4,5-b]indol-2(5H)-yl)-N-(2,2-difluorobenzo[d][1,3]dioxol-5-yl)-N-ethylacetamide]
30 to 80%	< 10 µM	Cc1nc2ccc(N(C)C(=O)Cn3ncc4c(c3=O)c3ccccc3n4Cc3ccc(Cl)cc3)cc2o1 [Example 147, 2-(5-(4-chlorobenzyl)-1-oxo-1,5-dihydro-2H-pyridazino[4,5-b]indol-2-yl)-N-methyl-N-(2-methylbenzo[d]oxazol-6-yl)acetamide]
30 to 80%	< 10 µM	Cc1nc2ccc(N(C)C(=O)Cn3ncc4c(c3=O)c3ccccc3n4Cc3ccc(F)cc3)cc2o1 [Example 148, 2-(5-(4-fluorobenzyl)-1-oxo-1,5-dihydro-2H-pyridazino[4,5-b]indol-2-yl)-N-methyl-N-(2-methylbenzo[d]oxazol-6-yl)acetamide]
